Reference: the kinase profiling compilation of Christmann-Franck et al. (2016)

Assays:
Assay in all cases: radiometric filter-binding kinase assay, Kinase HotSpot
Details in all cases: compound 0.5 µM; ATP 10 µM
[1] = target: TYK2 JH1 catalytic (human) (UniProt P29597)
FYN (human) = FYN (human) (UniProt P06241)
TSSK2 (human) = TSSK2 (human) (UniProt Q96PF2)
FGFR4 (human) = FGFR4 (human) (UniProt P22455)
SRC (human) = SRC (human) (UniProt P12931)
RPS6KA4 KD2 (human) = RPS6KA4 KD2 (human) (UniProt O75676)
GRK5 (human) = GRK5 (human) (UniProt P34947)
MAPK9 (human) = MAPK9 (human) (UniProt P45984)
EPHB1 (human) = EPHB1 (human) (UniProt P54762)
FLT3 (human) = FLT3 (human) (UniProt P36888)
CSNK1G3 (human) = CSNK1G3 (human) (UniProt Q9Y6M4)
BLK (human) = BLK (human) (UniProt P51451)
MELK (human) = MELK (human) (UniProt Q14680)
WNK2 (human) = WNK2 (human) (UniProt Q9Y3S1)
[2] = test system: MKNK1 (human), Q9BUB5 [T385D; 165-205 del]
STK11 (human) = STK11 (human) (UniProt Q15831)
KDR (human) = KDR (human) (UniProt P35968)
[3] = test system: PRKCQ (human), Q04759 [P330L]
CLK2 (human) = CLK2 (human) (UniProt P49760)
MAP3K10 (human) = MAP3K10 (human) (UniProt Q02779)
HIPK4 (human) = HIPK4 (human) (UniProt Q8NE63)
DAPK1 (human) = DAPK1 (human) (UniProt P53355)
RIPK2 (human) = RIPK2 (human) (UniProt O43353)
MYLK2 (human) = MYLK2 (human) (UniProt Q9H1R3)
RPS6KB2 (human) = RPS6KB2 (human) (UniProt Q9UBS0)
MAP3K9 (human) = MAP3K9 (human) (UniProt P80192)
PHKG1 (human) = PHKG1 (human) (UniProt Q16816)
INSR (human) = INSR (human) (UniProt P06213)
CDK4 CCND3 (human) = CDK4 CCND3 (human) (UniProt P30281+P11802)
TEC (human) = TEC (human) (UniProt P42680)
DCLK2 (human) = DCLK2 (human) (UniProt Q8N568)
AURKB (human) = AURKB (human) (UniProt Q96GD4)
MERTK (human) = MERTK (human) (UniProt Q12866)
ERBB4 (human) = ERBB4 (human) (UniProt Q15303)
AKT1 (human) = AKT1 (human) (UniProt P31749)
CDK7 CCNH MNAT1 (human) = CDK7 CCNH MNAT1 (human) (UniProt P50613+P51948+P51946)
DYRK4 (human) = DYRK4 (human) (UniProt Q9NR20)
ROCK2 (human) = ROCK2 (human) (UniProt O75116)
CSNK1E (human) = CSNK1E (human) (UniProt P49674)
INSRR (human) = INSRR (human) (UniProt P14616)
PKN1 (human) = PKN1 (human) (UniProt Q16512)
PIM1 (human) = PIM1 (human) (UniProt P11309)

Sequence of HIPK4 (human) (Q8NE63 whole entry, looked up): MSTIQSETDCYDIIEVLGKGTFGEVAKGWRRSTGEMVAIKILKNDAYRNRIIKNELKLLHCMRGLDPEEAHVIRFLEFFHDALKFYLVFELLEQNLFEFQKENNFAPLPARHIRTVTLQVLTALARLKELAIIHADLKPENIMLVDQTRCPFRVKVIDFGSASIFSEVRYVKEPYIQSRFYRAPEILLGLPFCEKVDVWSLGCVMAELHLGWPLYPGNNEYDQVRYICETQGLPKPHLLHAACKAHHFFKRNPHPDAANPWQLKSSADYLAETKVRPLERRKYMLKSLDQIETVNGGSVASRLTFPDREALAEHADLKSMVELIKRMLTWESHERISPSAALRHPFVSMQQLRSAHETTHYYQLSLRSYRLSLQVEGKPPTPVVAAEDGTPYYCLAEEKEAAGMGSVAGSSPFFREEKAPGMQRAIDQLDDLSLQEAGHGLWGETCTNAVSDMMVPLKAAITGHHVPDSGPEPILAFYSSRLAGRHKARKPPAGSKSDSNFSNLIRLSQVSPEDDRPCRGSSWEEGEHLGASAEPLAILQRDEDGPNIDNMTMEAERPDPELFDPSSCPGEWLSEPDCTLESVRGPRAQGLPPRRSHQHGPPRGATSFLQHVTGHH
Sequence of MKNK1 (human), Q9BUB5 [T385D; 165-205 del] (Q9BUB5 whole entry, looked up, stated change not applied): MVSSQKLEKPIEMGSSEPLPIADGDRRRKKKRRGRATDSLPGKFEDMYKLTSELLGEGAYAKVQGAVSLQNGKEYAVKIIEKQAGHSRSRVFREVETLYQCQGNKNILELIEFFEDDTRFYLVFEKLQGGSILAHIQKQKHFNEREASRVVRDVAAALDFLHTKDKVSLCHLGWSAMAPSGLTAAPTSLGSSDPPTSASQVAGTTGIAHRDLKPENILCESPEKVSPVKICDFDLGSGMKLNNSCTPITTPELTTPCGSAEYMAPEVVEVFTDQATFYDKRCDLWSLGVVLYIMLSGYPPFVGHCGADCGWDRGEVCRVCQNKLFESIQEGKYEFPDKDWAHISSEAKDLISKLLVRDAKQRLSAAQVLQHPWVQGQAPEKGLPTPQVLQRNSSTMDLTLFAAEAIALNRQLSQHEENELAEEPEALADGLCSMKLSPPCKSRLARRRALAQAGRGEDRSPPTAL
Sequence of RIPK2 (human) (O43353 whole entry, looked up): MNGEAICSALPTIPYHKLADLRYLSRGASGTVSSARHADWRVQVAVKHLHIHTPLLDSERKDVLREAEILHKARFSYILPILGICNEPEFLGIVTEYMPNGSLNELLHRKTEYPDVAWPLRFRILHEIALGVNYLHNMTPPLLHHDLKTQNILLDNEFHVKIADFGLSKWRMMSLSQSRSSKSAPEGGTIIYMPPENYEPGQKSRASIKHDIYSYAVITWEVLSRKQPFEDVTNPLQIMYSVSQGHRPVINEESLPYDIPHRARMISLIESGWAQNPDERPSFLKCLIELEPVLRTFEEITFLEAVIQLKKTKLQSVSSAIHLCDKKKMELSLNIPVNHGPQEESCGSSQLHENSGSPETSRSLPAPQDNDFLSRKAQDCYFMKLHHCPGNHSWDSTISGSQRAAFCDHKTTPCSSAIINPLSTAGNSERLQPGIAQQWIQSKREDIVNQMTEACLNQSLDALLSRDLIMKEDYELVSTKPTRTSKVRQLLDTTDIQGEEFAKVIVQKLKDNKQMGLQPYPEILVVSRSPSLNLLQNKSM
Sequence of MAP3K9 (human) (P80192 whole entry, looked up): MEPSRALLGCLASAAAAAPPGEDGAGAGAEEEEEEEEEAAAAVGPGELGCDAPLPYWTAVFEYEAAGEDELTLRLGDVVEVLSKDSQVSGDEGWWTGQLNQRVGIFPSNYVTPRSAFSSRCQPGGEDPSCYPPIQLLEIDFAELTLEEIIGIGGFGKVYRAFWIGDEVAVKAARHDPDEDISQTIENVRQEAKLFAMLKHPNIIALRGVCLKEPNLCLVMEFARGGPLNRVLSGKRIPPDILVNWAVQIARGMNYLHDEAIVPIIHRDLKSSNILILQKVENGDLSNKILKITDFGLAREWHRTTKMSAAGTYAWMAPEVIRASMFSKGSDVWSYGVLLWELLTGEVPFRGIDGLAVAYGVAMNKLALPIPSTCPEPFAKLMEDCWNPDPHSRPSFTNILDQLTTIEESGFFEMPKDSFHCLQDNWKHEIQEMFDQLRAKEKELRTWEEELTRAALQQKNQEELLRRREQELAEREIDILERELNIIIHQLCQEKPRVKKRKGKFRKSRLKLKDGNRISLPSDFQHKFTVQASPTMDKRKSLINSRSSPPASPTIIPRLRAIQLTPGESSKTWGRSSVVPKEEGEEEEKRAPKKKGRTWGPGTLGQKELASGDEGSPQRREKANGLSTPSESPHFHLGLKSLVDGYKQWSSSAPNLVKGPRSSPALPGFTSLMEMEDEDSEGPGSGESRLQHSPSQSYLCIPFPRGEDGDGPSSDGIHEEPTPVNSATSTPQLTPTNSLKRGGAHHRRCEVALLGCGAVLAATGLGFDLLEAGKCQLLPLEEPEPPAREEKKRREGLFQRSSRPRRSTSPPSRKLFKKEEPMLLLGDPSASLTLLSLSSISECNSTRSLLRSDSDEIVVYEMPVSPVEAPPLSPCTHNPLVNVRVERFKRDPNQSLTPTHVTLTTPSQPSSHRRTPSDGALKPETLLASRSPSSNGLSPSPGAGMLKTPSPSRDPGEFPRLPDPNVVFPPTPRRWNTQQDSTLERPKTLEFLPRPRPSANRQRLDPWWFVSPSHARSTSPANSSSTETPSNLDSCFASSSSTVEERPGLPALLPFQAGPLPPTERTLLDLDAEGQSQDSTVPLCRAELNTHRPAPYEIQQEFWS
Sequence of MAPK9 (human) (P45984 whole entry, looked up): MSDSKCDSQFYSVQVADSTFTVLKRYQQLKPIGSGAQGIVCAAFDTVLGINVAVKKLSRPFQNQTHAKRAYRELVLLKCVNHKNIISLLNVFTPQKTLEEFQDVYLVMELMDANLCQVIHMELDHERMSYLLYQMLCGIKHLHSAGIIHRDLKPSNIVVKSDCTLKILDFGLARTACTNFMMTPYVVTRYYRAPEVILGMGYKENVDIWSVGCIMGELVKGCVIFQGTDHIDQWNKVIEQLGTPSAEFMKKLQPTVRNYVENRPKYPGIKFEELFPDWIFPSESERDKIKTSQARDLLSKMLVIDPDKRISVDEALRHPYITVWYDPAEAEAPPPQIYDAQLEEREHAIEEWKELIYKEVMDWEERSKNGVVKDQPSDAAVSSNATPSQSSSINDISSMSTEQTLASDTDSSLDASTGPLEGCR
Sequence of INSRR (human) (P14616 whole entry, looked up): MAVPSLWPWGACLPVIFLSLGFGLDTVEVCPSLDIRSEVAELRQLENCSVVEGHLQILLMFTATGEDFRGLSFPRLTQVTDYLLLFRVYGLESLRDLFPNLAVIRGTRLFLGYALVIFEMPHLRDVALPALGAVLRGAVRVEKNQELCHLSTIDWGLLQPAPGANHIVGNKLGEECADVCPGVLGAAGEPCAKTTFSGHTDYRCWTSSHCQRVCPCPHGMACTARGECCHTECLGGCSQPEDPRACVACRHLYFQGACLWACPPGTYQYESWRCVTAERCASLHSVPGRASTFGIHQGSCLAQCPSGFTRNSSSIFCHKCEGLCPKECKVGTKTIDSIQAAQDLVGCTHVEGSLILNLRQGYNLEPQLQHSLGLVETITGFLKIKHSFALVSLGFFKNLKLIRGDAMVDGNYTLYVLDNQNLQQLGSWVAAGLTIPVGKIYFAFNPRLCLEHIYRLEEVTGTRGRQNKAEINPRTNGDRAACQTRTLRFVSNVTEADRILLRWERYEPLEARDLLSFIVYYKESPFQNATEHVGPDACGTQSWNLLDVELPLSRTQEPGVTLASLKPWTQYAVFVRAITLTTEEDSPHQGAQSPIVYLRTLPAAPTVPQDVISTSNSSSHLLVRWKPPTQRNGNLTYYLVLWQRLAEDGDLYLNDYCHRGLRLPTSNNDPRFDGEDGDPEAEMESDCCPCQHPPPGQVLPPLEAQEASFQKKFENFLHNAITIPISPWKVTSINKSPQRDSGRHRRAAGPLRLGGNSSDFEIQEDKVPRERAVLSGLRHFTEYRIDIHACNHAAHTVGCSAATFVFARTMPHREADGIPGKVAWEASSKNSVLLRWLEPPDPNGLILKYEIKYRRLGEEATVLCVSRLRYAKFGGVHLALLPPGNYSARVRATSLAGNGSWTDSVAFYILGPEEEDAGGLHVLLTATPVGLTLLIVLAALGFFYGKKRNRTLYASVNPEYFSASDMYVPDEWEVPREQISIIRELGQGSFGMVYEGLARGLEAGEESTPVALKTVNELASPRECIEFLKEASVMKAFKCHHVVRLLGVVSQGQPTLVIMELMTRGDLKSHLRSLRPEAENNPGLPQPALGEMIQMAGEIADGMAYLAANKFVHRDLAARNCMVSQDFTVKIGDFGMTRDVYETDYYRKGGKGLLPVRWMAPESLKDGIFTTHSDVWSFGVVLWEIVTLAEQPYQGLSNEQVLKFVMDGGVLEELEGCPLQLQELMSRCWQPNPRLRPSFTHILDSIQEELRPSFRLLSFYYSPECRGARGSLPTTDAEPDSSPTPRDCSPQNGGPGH
Sequence of FYN (human) (P06241 whole entry, looked up): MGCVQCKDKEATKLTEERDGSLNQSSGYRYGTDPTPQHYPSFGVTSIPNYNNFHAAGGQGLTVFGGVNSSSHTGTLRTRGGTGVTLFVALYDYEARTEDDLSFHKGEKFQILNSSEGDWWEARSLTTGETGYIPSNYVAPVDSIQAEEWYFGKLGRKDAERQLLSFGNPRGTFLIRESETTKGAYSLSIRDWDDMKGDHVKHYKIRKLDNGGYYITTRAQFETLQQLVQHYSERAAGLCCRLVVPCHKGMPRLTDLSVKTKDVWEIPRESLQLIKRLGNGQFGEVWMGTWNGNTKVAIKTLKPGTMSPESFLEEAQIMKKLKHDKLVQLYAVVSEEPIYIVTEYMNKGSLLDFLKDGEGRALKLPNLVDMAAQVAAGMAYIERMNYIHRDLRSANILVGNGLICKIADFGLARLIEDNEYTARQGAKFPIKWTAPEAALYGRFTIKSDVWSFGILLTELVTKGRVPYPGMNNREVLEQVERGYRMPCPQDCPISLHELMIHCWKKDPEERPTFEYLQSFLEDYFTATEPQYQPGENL

Work on `CN(C)CCCn1cc(C2=C(c3c[nH]c4ccccc34)C(=O)NC2=O)c2ccccc21` yielded a residual activity [1] of 79.3%, a residual activity (FYN (human)) of 88.3% and a residual activity (TSSK2 (human)) of 97.3%. For the same compound, the residual activity (FGFR4 (human)) was 89%, the residual activity (SRC (human)) was 92.6% and the residual activity (RPS6KA4 KD2 (human)) was 34.9%. For the same compound, the residual activity (GRK5 (human)) was 71.6%, the residual activity (MAPK9 (human)) was 98.7% and the residual activity (EPHB1 (human)) was 87.4%. It also gave a residual activity (FLT3 (human)) of 5.6%, a residual activity (CSNK1G3 (human)) of 96.9% and a residual activity (BLK (human)) of 87%. The residual activity (MELK (human)) was 42%, the residual activity (WNK2 (human)) was 107% and the residual activity [2] was 81.2%. It also gave a residual activity (STK11 (human)) of 92.8%, a residual activity (KDR (human)) of 65.5% and a residual activity [3] of 17.3%. The residual activity (CLK2 (human)) was 28%, the residual activity (MAP3K10 (human)) was 81.8% and the residual activity (HIPK4 (human)) was 113%. It also gave a residual activity (DAPK1 (human)) of 87.9%, a residual activity (RIPK2 (human)) of 87.7% and a residual activity (MYLK2 (human)) of 73.9%. The residual activity (RPS6KB2 (human)) was 59%, the residual activity (MAP3K9 (human)) was 46% and the residual activity (PHKG1 (human)) was 31.9%. It also gave a residual activity (INSR (human)) of 88.9%, a residual activity (CDK4 CCND3 (human)) of 67% and a residual activity (TEC (human)) of 116%. The residual activity (DCLK2 (human)) was 95%, the residual activity (AURKB (human)) was 86.6% and the residual activity (MERTK (human)) was 92.1%. The residual activity (ERBB4 (human)) was 87.7%, the residual activity (AKT1 (human)) was 93.5% and the residual activity (CDK7 CCNH MNAT1 (human)) was 92.1%. The residual activity (DYRK4 (human)) was 95%, the residual activity (ROCK2 (human)) was 113% and the residual activity (CSNK1E (human)) was 96.3%. For the same compound, the residual activity (INSRR (human)) was 91.3%.
`N#Cc1c[nH]c2c[nH]/c(=N\Cc3cccnc3)cc2/c1=N\c1ccc(F)c(Cl)c1` was tested, and the residual activity [1] was 103%, the residual activity (FYN (human)) was 103% and the residual activity (TSSK2 (human)) was 100%. The residual activity (FGFR4 (human)) was 92.6%, the residual activity (SRC (human)) was 92.6% and the residual activity (RPS6KA4 KD2 (human)) was 92%. It also gave a residual activity (MAPK9 (human)) of 100%, a residual activity (EPHB1 (human)) of 93.1% and a residual activity (FLT3 (human)) of 83.6%. The residual activity (CSNK1G3 (human)) was 103%, the residual activity (BLK (human)) was 99.9% and the residual activity (MELK (human)) was 88%. For the same compound, the residual activity (WNK2 (human)) was 91.1%, the residual activity [2] was 73.2% and the residual activity (STK11 (human)) was 91.1%. For the same compound, the residual activity (PKN1 (human)) was 101%, the residual activity (KDR (human)) was 96.3% and the residual activity [3] was 113%. It also gave a residual activity (CLK2 (human)) of 79.9%, a residual activity (MAP3K10 (human)) of 101% and a residual activity (HIPK4 (human)) of 93.1%. It also gave a residual activity (DAPK1 (human)) of 102%, a residual activity (RIPK2 (human)) of 85.3% and a residual activity (MYLK2 (human)) of 96.2%. For the same compound, the residual activity (RPS6KB2 (human)) was 99.5%, the residual activity (MAP3K9 (human)) was 87.5% and the residual activity (PHKG1 (human)) was 92%. For the same compound, the residual activity (INSR (human)) was 85.1%, the residual activity (CDK4 CCND3 (human)) was 101% and the residual activity (TEC (human)) was 118%. For the same compound, the residual activity (PIM1 (human)) was 92.7%, the residual activity (DCLK2 (human)) was 97.2% and the residual activity (AURKB (human)) was 90.1%. The residual activity (MERTK (human)) was 67.2%, the residual activity (ERBB4 (human)) was 72.6% and the residual activity (AKT1 (human)) was 98.6%. The residual activity (CDK7 CCNH MNAT1 (human)) was 87.4%, the residual activity (DYRK4 (human)) was 84.4% and the residual activity (ROCK2 (human)) was 97.1%. The residual activity (CSNK1E (human)) was 81.8% and the residual activity (INSRR (human)) was 97%.
With `COc1ccc2c(c1)/C(=C/c1cnc[nH]1)C(O)=N2` the residual activity [1] was 45%, the residual activity (FYN (human)) was 81.2% and the residual activity (TSSK2 (human)) was 97.3%. It also gave a residual activity (FGFR4 (human)) of 85.8%, a residual activity (SRC (human)) of 92.1% and a residual activity (RPS6KA4 KD2 (human)) of 76.9%. It also gave a residual activity (GRK5 (human)) of 97%, a residual activity (MAPK9 (human)) of 101% and a residual activity (EPHB1 (human)) of 92.2%. For the same compound, the residual activity (FLT3 (human)) was 9.29%, the residual activity (CSNK1G3 (human)) was 103% and the residual activity (BLK (human)) was 90.3%. The residual activity (MELK (human)) was 36.5%, the residual activity (WNK2 (human)) was 102% and the residual activity [2] was 88.4%. The residual activity (STK11 (human)) was 51.7%, the residual activity (PKN1 (human)) was 87.4% and the residual activity (KDR (human)) was 78.7%. It also gave a residual activity [3] of 109%, a residual activity (CLK2 (human)) of 80.6% and a residual activity (MAP3K10 (human)) of 92.9%. For the same compound, the residual activity (HIPK4 (human)) was 90.8%, the residual activity (DAPK1 (human)) was 105% and the residual activity (RIPK2 (human)) was 90%. It also gave a residual activity (MYLK2 (human)) of 21%, a residual activity (RPS6KB2 (human)) of 98.7% and a residual activity (MAP3K9 (human)) of 58%. For the same compound, the residual activity (PHKG1 (human)) was 53.8%, the residual activity (CDK4 CCND3 (human)) was 49.6% and the residual activity (TEC (human)) was 91.6%. The residual activity (PIM1 (human)) was 90.8%, the residual activity (DCLK2 (human)) was 96% and the residual activity (AURKB (human)) was 40%. For the same compound, the residual activity (MERTK (human)) was 84.7%, the residual activity (ERBB4 (human)) was 106% and the residual activity (AKT1 (human)) was 100%. The residual activity (CDK7 CCNH MNAT1 (human)) was 84.2%, the residual activity (DYRK4 (human)) was 98.5% and the residual activity (ROCK2 (human)) was 87.4%. It also gave a residual activity (CSNK1E (human)) of 80% and a residual activity (INSRR (human)) of 97.8%.
